Values of other authors as cited in PubChem BioAssay AID1259409 (Chemical Carcinogenesis Research Information System (CCRIS), 2018).

Tested on: rodent chemically induced tumor inhibition, incidence and multiplicity
Assay: CCRIS tumor inhibitor studies
Conditions: Dose [Inhibitor]: 0, Route [Inhibitor]: ORAL

In the case of `Oc1cccc(O)c1`, the “tumour outcome (control, treated, inhibition, significance)” value (Carcinogen: N-BIS(2-HYDROXYPROPYL)NITROSAMINE, 53609-64-6, 0.8% IN DIET FOR 30 WK BEGINNING POST CARCINOGEN TREATMENT (STUDY DURATION: 32 WK), Species: RAT, Strain/Sex: F344/MALE, Target Tissue: Type of Lesion: LUNG: ADENOMA, Dose [Carcinogen]: 0.1% IN DRINKING WATER FOR 2 WK, Promoter: NONE USED) is listed as 100%, 90%, 10%, not calculated, the “tumour outcome (control, treated, inhibition, significance)” value (Carcinogen: N-BIS(2-HYDROXYPROPYL)NITROSAMINE, 53609-64-6, 0.8% IN DIET FOR 30 WK BEGINNING POST CARCINOGEN TREATMENT (STUDY DURATION: 32 WK), Species: RAT, Strain/Sex: F344/MALE, Target Tissue: Type of Lesion: THYROID: ADENOMA, Dose [Carcinogen]: 0.1% IN DRINKING WATER FOR 2 WK, Promoter: NONE USED) is listed as 20%, 30%, -50%, not calculated and the “tumour outcome (control, treated, inhibition, significance)” value (Carcinogen: N-BIS(2-HYDROXYPROPYL)NITROSAMINE, 53609-64-6, 0.8% IN DIET FOR 30 WK BEGINNING POST CARCINOGEN TREATMENT (STUDY DURATION: 32 WK), Species: RAT, Strain/Sex: F344/MALE, Target Tissue: Type of Lesion: THYROID: CARCINOMA, Dose [Carcinogen]: 0.1% IN DRINKING WATER FOR 2 WK, Promoter: NONE USED) is listed as 20%, 25%, -25%, not calculated. For the same molecule, the “tumour outcome (control, treated, inhibition, significance)” value (Carcinogen: N-ETHYL-N-HYDROXYETHYLNITROSAMINE, 13147-25-6, 0.8% IN DIET FOR 36 WK BEGINNING 1 WK POST CARCINOGEN TREATMENT (STUDY DURATION: 40 WK), Species: RAT, Strain/Sex: WISTAR/MALE, Target Tissue: Type of Lesion: KIDNEY: MICROADENOMA, Dose [Carcinogen]: 0.1% IN DRINKING WATER FOR 3 WK, Promoter: NONE USED) was 11/17 (65%), 12/16 (75%), -15%, not significant, the “tumour outcome (control, treated, inhibition, significance)” value (Carcinogen: N-ETHYL-N-HYDROXYETHYLNITROSAMINE, 13147-25-6, 0.8% IN DIET FOR 36 WK BEGINNING 1 WK POST CARCINOGEN TREATMENT (STUDY DURATION: 40 WK), Species: RAT, Strain/Sex: WISTAR/MALE, Target Tissue: Type of Lesion: KIDNEY: RENAL CELL TUMOR, Dose [Carcinogen]: 0.1% IN DRINKING WATER FOR 3 WK, Promoter: NONE USED) was 14/17 (82%), 13/16 (81%), 1%, not significant and the “tumour outcome (control, treated, inhibition, significance)” value (Carcinogen: N-ETHYL-N-HYDROXYETHYLNITROSAMINE, 13147-25-6, 0.8% IN DIET FOR 36 WK BEGINNING 1 WK POST CARCINOGEN TREATMENT (STUDY DURATION: 40 WK), Species: RAT, Strain/Sex: WISTAR/MALE, Target Tissue: Type of Lesion: LIVER: HEPATOCELLULAR ADENOMA, Dose [Carcinogen]: 0.1% IN DRINKING WATER FOR 3 WK, Promoter: NONE USED) was 10/17 (59%), 7/16 (44%), 25%, not significant. For the same molecule, the “tumour outcome (control, treated, inhibition, significance)” value (Carcinogen: N-ETHYL-N-HYDROXYETHYLNITROSAMINE, 13147-25-6, 0.8% IN DIET FOR 36 WK BEGINNING 1 WK POST CARCINOGEN TREATMENT (STUDY DURATION: 40 WK), Species: RAT, Strain/Sex: WISTAR/MALE, Target Tissue: Type of Lesion: LIVER: HEPATOCELLULAR CARCINOMA, Dose [Carcinogen]: 0.1% IN DRINKING WATER FOR 3 WK, Promoter: NONE USED) was 7/17 (41%), 3/16 (19%), 54%, not significant, the “tumour outcome (control, treated, inhibition, significance)” value (Carcinogen: N-NITROSOBIS(2-OXOPROPYL)AMINE, 60599-38-4, 1.5% IN DIET FOR 16 WK BEGINNING 2 WK POST CARCINOGEN TREATMENT (STUDY DURATION: 20 WK), Species: HAMSTER, Strain/Sex: SYRIAN/FEMALE, Target Tissue: Type of Lesion: GALL BLADDER: ADENOMA, Dose [Carcinogen]: 70 MG/KG IN SALINE FOLLOWED 2 WK LATER BY SECOND TREATMENT) was 9/18 (50%), 10/16 (62%), -24%, not calculated and the “tumour outcome (control, treated, inhibition, significance)” value (Carcinogen: N-NITROSOBIS(2-OXOPROPYL)AMINE, 60599-38-4, 1.5% IN DIET FOR 16 WK BEGINNING 2 WK POST CARCINOGEN TREATMENT (STUDY DURATION: 20 WK), Species: HAMSTER, Strain/Sex: SYRIAN/FEMALE, Target Tissue: Type of Lesion: GALL BLADDER: CARCINOMA, Dose [Carcinogen]: 70 MG/KG IN SALINE FOLLOWED 2 WK LATER BY SECOND TREATMENT) was 1/18 (6%), 1/16 (6%), 0%, not significant. For the same molecule, the “tumour outcome (control, treated, inhibition, significance)” value (Carcinogen: N-NITROSOBIS(2-OXOPROPYL)AMINE, 60599-38-4, 1.5% IN DIET FOR 16 WK BEGINNING 2 WK POST CARCINOGEN TREATMENT (STUDY DURATION: 20 WK), Species: HAMSTER, Strain/Sex: SYRIAN/FEMALE, Target Tissue: Type of Lesion: LIVER: CHOLANGIOCARCINOMA, Dose [Carcinogen]: 70 MG/KG IN SALINE FOLLOWED 2 WK LATER BY SECOND TREATMENT) was 16/18 (89%), 12/16 (75%), 16%, not calculated, the “tumour outcome (control, treated, inhibition, significance)” value (Carcinogen: N-NITROSOBIS(2-OXOPROPYL)AMINE, 60599-38-4, 1.5% IN DIET FOR 16 WK BEGINNING 2 WK POST CARCINOGEN TREATMENT (STUDY DURATION: 20 WK), Species: HAMSTER, Strain/Sex: SYRIAN/FEMALE, Target Tissue: Type of Lesion: LIVER: NEOPLASTIC NODULE, Dose [Carcinogen]: 70 MG/KG IN SALINE FOLLOWED 2 WK LATER BY SECOND TREATMENT) was 18/18 (100%), 16/16 (100%), 0%, not significant and the “tumour outcome (control, treated, inhibition, significance)” value (Carcinogen: N-NITROSOBIS(2-OXOPROPYL)AMINE, 60599-38-4, 1.5% IN DIET FOR 16 WK BEGINNING 2 WK POST CARCINOGEN TREATMENT (STUDY DURATION: 20 WK), Species: HAMSTER, Strain/Sex: SYRIAN/FEMALE, Target Tissue: Type of Lesion: PANCREAS: ADENOCARCINOMA, Dose [Carcinogen]: 70 MG/KG IN SALINE FOLLOWED 2 WK LATER BY SECOND TREATMENT) was 14/18 (78%), 10/16 (63%), 19%, not calculated.
